Test system: C57Bl/6N male mice
Experiment: OGTT testing in C57Bl/6N male mice (oral glucose tolerance test)
Type: in vivo
Conditions: single per os dose 60 min before glucose 2 g/kg; Z1558775684 20 mg/kg, Metformin 300 mg/kg; compared with Vehicle-treated group; 5 mice per group
Experimental: Values are expressed as means of 5 animals tested. For glucose tolerance test (GTT), mice were orally treated with glucose at dose of 2 g/kg at the dose volume of 10 ml/kg after a 6-hour fasting. Glucose measurements were performed immediately before compound treatment (−60 min), at −30 min, 0 min (before glucose administration), and then 15, 30, 60, 90 and 120 min after glucose administration.
Example 87: OGTT Testing in C57Bl/6N Male Mice
Each experimental group consisted of five male C57Bl/6N mice. Animals were dosed once perorally with 20 mg/kg of tested compound Z1558775684. A control group was dosed with vehicle on the same schedule. Metformin at the dosage of 300 mg/kg was used as reference compound.
Compound Z1558775684 was dissolved/suspended in DMSO—PEG400—physiological saline (20%:50%:30%) at concentration 4 mg/ml. Metformin was dissolved in the same vehicle at concentration 60 mg/ml. The test samples were administered per os in the volume corresponding to 5 ml/kg body weight.
Single doses of test samples were administered 60 min before glucose treatment at 3 p.m.
The blood glucose level was measured after 6-hour fasting using Call Plus glucometer and specific test strips. Blood was obtained from the tail vein by incision of the tail tip, 5-6 μl of blood was used for each assay. […]

Row | SMILES | glucose level during oral glucose tolerance test (OGTT)
1 | CCc1nc(N)nc(SCc2ncc(-c3cccc(Cl)c3)o2)n1 [Compound Z1558775684, 4-(((5-(3-chlorophenyl)oxazol-2-yl)methyl)thio)-6-ethyl-1,3,5-triazin-2-amine] | Statistically significant decrease in glucose level
2 | CN(C)C(=N)N=C(N)N [Metformin] | Statistically significant decrease in glucose level

From patent US12715867B2, “Agonists of free fatty acid receptor 1 and their use in diseases associated with said receptor” (HALO Therapeutics Ltd, priority 2020, dated 2026)
